In ChEMBL document CHEMBL1201862, “PubChem BioAssay data set” (2004):
Activity calls are given as the source filed them.

Tests used:
[1] = system: Streptococcus sp. 'group A'; assay: growth inhibition of control SK(-) GAS strain, dose response, counter-screen for streptokinase expression inhibitor project, luminescence, kanamycin, BacTiterGlo, confirmation (AID 1900); format: functional, organism-based
Beta-galactosidase [2] = target: T1, Beta-galactosidase (Escherichia coli, UniProt Q8VNN2); assay: PubChem AID 485352; format: functional
T1 sequence (Q8VNN2 whole entry): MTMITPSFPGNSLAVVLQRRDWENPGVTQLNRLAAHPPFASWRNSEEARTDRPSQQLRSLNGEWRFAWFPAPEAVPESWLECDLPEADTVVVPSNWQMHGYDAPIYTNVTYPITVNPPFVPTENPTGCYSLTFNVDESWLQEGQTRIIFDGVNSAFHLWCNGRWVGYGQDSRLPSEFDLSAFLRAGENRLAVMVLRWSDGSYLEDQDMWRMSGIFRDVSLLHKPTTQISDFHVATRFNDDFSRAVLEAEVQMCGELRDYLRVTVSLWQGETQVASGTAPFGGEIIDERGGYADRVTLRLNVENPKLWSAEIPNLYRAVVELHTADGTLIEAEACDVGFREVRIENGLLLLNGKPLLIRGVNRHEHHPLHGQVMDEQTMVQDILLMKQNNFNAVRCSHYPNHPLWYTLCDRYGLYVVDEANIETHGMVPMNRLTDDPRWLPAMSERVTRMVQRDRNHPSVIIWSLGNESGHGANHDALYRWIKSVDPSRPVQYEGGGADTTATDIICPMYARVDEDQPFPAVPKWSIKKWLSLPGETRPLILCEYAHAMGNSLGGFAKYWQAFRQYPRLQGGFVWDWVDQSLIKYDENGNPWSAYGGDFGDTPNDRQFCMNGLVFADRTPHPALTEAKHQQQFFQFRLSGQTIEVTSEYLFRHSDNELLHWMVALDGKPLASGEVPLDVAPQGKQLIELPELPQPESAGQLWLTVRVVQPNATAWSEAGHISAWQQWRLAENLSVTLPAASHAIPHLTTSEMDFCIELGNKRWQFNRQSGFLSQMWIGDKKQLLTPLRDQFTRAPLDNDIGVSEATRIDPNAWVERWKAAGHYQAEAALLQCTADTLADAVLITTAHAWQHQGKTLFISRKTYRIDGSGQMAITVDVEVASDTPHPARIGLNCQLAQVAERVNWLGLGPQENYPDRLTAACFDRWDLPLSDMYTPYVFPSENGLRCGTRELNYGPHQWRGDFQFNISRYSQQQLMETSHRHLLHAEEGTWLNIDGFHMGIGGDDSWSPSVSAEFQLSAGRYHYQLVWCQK

Streptokinase A = target: T2, Streptokinase A (Streptococcus pyogenes serotype M1, UniProt P10520); assay: S. pyogenes streptokinase expression inhibitors, potency, dose response, plasminogen activation absorbance, OD405 (AID 1914); format: functional, Streptococcus pyogenes M1 GAS;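 also: secreted streptokinase activity via plasminogen activation per viability signal from cell pellet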
T2 sequence (P10520 whole entry): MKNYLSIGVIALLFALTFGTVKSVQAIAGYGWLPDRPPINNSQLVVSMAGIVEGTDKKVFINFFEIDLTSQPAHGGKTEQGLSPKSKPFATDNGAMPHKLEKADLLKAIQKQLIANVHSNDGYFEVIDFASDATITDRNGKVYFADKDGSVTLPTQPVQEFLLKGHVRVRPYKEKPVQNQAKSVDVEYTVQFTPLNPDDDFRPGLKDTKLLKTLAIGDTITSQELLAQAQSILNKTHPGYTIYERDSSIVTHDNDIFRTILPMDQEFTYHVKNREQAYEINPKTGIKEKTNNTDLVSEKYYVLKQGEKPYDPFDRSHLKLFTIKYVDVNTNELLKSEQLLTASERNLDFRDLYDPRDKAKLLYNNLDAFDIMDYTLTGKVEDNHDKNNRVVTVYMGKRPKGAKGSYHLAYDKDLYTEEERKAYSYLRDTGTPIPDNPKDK

[3] = target: T3, Type-1 angiotensin II receptor (Homo sapiens, UniProt P30556); assay: AT1 receptor antagonists, dose response, selectivity assay for APJ receptor antagonist project, cell-based, uHTS hits (AID 463214); format: functional;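 also: antagonist potency against angiotensin II stimulated AT1 response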
T3 sequence (P30556 whole entry): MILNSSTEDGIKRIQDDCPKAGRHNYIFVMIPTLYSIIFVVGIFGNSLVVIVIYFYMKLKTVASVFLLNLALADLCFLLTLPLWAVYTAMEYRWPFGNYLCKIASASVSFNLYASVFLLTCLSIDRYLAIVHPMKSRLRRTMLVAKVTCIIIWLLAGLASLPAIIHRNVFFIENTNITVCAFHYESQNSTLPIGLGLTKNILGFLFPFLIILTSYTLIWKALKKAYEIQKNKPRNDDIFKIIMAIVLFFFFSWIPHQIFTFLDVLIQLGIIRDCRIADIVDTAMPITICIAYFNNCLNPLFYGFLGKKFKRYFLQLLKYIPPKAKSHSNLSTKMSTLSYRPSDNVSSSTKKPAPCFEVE

[4] = target: T4, Kappa-type opioid receptor (Homo sapiens, UniProt P41145); format: functional
T4 sequence (P41145 whole entry): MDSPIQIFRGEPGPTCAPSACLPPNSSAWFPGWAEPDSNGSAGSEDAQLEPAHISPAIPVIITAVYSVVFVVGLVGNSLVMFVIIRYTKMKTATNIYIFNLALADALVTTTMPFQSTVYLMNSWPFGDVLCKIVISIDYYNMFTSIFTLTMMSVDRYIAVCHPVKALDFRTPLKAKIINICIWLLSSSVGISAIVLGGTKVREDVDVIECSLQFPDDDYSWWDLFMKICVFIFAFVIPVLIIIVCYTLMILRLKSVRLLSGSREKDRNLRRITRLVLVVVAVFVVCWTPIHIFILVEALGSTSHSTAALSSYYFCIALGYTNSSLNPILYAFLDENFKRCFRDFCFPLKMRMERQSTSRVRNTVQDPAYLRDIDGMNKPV

Beta-galactosidase [5] = target: T1, Beta-galactosidase; format: functional
[6] = target: T4, Kappa-type opioid receptor; format: functional; remark: listed apart in the source
Streptococcus = assay: Group A Streptococcus viability loss, dose response, counter-screen for streptokinase expression inhibitor project, luminescence, BacTiterGlo (AID 1915); format: functional, organism-based;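 also: potency for reduction of bacterial viability or growth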
[7] = THP-1 cell cytotoxicity, dose response, cytotoxicity control for non-replicating M. tuberculosis project (AID 489025); format: functional
[8] = HepG2 cell cytotoxicity, dose response, cytotoxicity control for non-replicating M. tuberculosis project (AID 489018); format: functional; settings: Mycobacterium tuberculosis
[9] = Vero E6 cell cytotoxicity, dose response, cytotoxicity control for non-replicating M. tuberculosis project, secondary assay (AID 492998); format: functional, VeroE6; settings: Vero C1008
cells = format: functional
INS1 = assay: beta cell apoptosis inhibitors, cytokine rescue, dose response, luminescence, retest (AID 449756); format: functional, cell-based; settings: Rattus norvegicus;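 also: cell death triggered by IL-1 beta plus TNF-alpha plus IFN-gamma mixture; protective hits raise ATP signal compared with cytokine alone wells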
[10] = A549 cell cytotoxicity, dose response, cytotoxicity control, plate reader, cherry-pick, antagonist series (AID 743412); format: functional, cell-based
[11] = HepG2 cell cytotoxicity, dose response, cytotoxicity control, plate reader, cherry-pick, antagonist series (AID 743416); format: functional, cell-based
[12] = LGR2 antagonists, dose response, cell-based, HEK293, CRE-luciferase reporter, cherry pick, set 2 (AID 743343); format: functional;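 also: transfected cells were stimulated with diluted bursicon conditioned medium after compound addition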
[13] = MC4R antagonists, dose response, counter-screen for LGR2 antagonist project, cell-based, plate reader, cherry pick (AID 743444); format: functional;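 also: transfected HEK 293 cells stimulated with alpha-MSH peptide; potency of inhibitors of the alpha-MSH evoked signal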
[14] = HEK293 cell cytotoxicity, dose response, cytotoxicity control, plate reader, cherry-picked samples (AID 743446); format: functional, cell-based
Coagulation factor XII [15] = target: T5, Coagulation factor XII (Homo sapiens, UniProt P00748); assay: FXIIa inhibitor potency, concentration-response, biochemical (AID 716); format: functional
T5 sequence (P00748 whole entry): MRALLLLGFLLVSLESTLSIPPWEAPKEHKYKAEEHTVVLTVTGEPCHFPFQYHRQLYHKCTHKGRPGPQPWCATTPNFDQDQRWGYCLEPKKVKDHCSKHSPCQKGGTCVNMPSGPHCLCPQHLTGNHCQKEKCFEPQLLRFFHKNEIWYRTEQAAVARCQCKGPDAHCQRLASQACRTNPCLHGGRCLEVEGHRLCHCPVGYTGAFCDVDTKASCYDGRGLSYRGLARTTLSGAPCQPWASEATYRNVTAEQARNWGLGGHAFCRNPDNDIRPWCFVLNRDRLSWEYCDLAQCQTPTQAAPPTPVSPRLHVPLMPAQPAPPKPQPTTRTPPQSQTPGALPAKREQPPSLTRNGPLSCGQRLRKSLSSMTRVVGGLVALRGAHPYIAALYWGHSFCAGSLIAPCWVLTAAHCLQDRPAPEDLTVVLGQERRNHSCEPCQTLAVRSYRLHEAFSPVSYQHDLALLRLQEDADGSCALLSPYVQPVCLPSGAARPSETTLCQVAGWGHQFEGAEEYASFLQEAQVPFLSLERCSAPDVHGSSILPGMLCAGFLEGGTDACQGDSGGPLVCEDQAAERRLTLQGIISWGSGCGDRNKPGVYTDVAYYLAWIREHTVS

[16] = target: T6, Sphingosine 1-phosphate receptor 4 (Homo sapiens, UniProt O95977); assay: Late-stage fluorescence dose response cell-based assay to identify agonists of the Sphingosine 1-Phosphate Receptor 4 (S1P4): purchased compounds EC50. [Related pubchem assays (depositor defined):AID1509, AID1523, AID1563, AID1686, AID1701, AID1801]; format: functional
T6 sequence (O95977 whole entry): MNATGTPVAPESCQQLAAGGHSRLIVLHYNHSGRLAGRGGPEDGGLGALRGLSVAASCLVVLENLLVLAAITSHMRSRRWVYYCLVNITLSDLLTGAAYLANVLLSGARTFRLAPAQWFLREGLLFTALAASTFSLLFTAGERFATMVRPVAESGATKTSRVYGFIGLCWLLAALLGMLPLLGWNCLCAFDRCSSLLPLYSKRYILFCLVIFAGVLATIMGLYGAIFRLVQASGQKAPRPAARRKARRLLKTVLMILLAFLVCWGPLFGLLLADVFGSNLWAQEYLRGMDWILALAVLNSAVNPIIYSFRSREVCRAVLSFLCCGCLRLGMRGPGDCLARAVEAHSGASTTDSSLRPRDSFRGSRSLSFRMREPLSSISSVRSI

Coagulation factor XII [17] = target: T5, Coagulation factor XII; format: functional
[18] = inhibitors of firefly luciferase expression or activity, dose response, H4 neuroglioma cells, luminescence (AID 1990); format: functional, cell-based
[19] = Luminescence Cell-Based Dose Response HTS to Identify Inhibitors of 5'UTR Stem-Loop Driven Prion Protein mRNA Translation in H4 Neuroglioblastoma Cells. [Related pubchem assays: 1827 (Project Summary), 1813 (Primary HTS)]; format: functional
[20] = inhibitors of SNCA 5'UTR-driven reporter translation, confirmation, H4 neuroglioma cells, luminescence (AID 1988); format: functional, cell-based
Phosphomannomutase 2 = Phosphomannomutase 2 (Homo sapiens, UniProt O15305); assay: Counter screen SAR assay for PMM2 inhibitors via a fluorescence intensity assay. [Related pubchem assays (depositor defined):AID1545, AID1574]
Phosphomannomutase 2, sequence (O15305 whole entry): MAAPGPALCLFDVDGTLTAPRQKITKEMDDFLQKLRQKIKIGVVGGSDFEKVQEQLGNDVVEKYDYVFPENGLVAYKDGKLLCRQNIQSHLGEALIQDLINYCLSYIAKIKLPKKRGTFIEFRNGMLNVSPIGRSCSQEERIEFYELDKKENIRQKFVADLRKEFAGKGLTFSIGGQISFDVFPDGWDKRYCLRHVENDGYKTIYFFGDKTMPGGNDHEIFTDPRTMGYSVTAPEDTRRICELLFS

X-box-binding protein 1 = target: T7, X-box-binding protein 1 (Homo sapiens, UniProt P17861); format: functional, Cricetulus griseus;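 also: confirmatory dose-response counter-screen serving a CHOP assay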
T7 sequence (P17861 whole entry): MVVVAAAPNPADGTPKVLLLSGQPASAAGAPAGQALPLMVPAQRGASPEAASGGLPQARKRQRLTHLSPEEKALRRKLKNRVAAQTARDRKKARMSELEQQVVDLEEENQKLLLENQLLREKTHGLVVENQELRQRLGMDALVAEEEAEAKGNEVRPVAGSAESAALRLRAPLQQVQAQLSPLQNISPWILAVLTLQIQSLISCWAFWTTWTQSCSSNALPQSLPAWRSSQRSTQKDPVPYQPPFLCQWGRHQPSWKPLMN

Paired box protein Pax-8 = Paired box protein Pax-8 (Homo sapiens, UniProt Q06710); assay: inhibitors of PAX8-driven TPO luciferase reporter, dose response, RMG-I cells, cherry-pick (AID 687027); format: functional, cell-based;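 also: luciferase reporter driven by Pax8 target thyroperoxidase promoter measured by SteadyGlo luminescence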
Paired box protein Pax-8, sequence (Q06710 whole entry): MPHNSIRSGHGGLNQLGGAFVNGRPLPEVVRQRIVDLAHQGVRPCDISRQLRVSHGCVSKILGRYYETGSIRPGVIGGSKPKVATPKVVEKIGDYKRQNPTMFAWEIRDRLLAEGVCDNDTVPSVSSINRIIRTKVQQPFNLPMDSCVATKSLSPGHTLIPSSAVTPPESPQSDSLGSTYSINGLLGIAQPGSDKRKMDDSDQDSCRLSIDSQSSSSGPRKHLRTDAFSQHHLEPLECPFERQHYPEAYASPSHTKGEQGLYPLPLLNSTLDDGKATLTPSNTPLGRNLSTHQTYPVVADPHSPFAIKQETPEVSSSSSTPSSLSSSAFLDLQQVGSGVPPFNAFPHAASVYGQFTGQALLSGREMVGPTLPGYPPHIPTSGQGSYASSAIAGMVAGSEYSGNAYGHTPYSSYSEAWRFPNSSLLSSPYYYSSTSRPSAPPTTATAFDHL

O=C(Nc1nc2ccc(F)cc2s1)c1ccccn1
EC50 [1]: 2.5 µM (active) | EC50 (Beta-galactosidase [2]): > 40 µM (inactive) | EC50 (Streptokinase A): > 150 µM (not active) | IC50 [3]: 3.96 µM (active) | IC50 [4]: 4.6 µM (active) | EC50 (Beta-galactosidase [5]): > 31.5 µM (inactive) | IC50 [6]: > 32 µM | EC50 (Streptococcus): 10.1 µM (active) | CC50 [7]: 0.982 µM (active) | CC50 [8]: > 5 µM (active) | CC50 [9]: 3.18 µM (active) | IC50 (cells): < 0.1 µM (active) | AC50 (INS1): 2.72 µM (active) | AC50 [10]: 3.57 µM (active) | AC50 [11]: 10 µM (active) | AC50 [12]: 1.21 µM (active) | AC50 [13]: 1.61 µM (active) | AC50 [14]: 8.2 µM (active)

CCOCCn1c(SCCCc2ccccc2)nc2c1c(=O)[nH]c(=O)n2C
IC50 (Coagulation factor XII [15]): > 50 µM (inactive)

COc1ccc(OCCOc2ccc(C)nc2[N+](=O)[O-])cc1
EC50 [16]: > 50 µM (inactive)

O=S(=O)(N1CCCCC1)N1CCN(c2ccccc2F)CC1
IC50 (Coagulation factor XII [17]): > 50 µM (inactive)

CCSc1nc(-c2ccccc2)nc(C(Cl)Cl)n1
EC50 [18]: > 120 µM (not active) | EC50 [19]: 5.98 µM (active) | EC50 [20]: 1.11 µM (active) | IC50 (Phosphomannomutase 2): > 100 µM (inactive) | Absolute IC50 (XBP1) (X-box-binding protein 1): 10 µM | AC50 (Paired box protein Pax-8): 1.95 µM (active)
